These results are taken from US4008323A, “Method of reducing cholesterol using certain aromatic keto acids” (Pierre Fabre S.A., priority 1974, dated 1977).

Like-named read-outs stand apart in the source and are kept apart here.

Series [1] in a line: Acute toxicity in mice, oral LD50 (method of Miller & Tainter). To be noted: mouse, in vivo, mortality determined 48 hours after administration. As for the experimental part: The chemical compounds previously described were submitted to toxicity tests. It was determined in mice by oral administration and was calculated in accordance with the method of MILLER & TAINTER. It is generally low and greater than 1000 mg/kg.

In a further series the test system is carrageenin edema. As to the kind of experiment: Carrageenin edema test in rats (antiinflammatory). To be noted: for % var. / action (variation of paw volume increase vs controls) / change in vivo at 75 mg/kg: 75 mg/kg oral; for change in vivo at 75 mg/kg / change in vivo at 300 mg/kg / change in vivo at 200 mg/kg: Rattus norvegicus; for change in vivo at 300 mg/kg: 300 mg/kg oral; for change in vivo at 200 mg/kg: 200 mg/kg oral. In kind it is in vivo. As for the experimental part:
The antiinflammatory properties were shown by the carrageenin edema test in rats, the products having been administered orally 1 hour before the intrapodal injection of 0.05 ml of a 2% suspension of carrageenin; the volume of the rat's paw was measured by plethysmoscopy 3, 4 and 6 hours afterwards.
The experiment concerned for each lot […]; one lot of animals receiving only the vehicle (2 ml/100 g of Tween + water) which served for the administration of the products, constituted the control lot. The following table sets forth the results obtained: […]

A further series is described as follows: Solubility properties. In kind it is physicochemical. To be noted: for Solubility in water: in words; for Solubility in ethyl alcohol: ethyl alcohol / ethanol / alcohol; for Solubility in alcohol of 95° GL: alcohol / ethanol of 95° GL.
The test system of series [2] is writhings induced by acetic acid. The series is described as follows: Writhing test, acetic acid (analgetic). To be noted: 200 mg/kg by mouth, t + 60 to t + 70 min. In kind it is in vivo, male mouse. As for the experimental part: The administration of the compounds is effected by mouth at the time t. […] The determination of the writhings is effected from t + 60 min. to t + 70 min. The vehicle used for the administration of the products is a 5% solution of Tween 80 in 0.9% NaCl which will serve as control.
A general note: An intraperitoneal irritant provokes the stretching counted in writhing tests.

Setting [3] is: read-out: % mean variation of the volume of the paw at 3, 4 and 6 hrs.
Where [4] appears, read: + 3 hrs, read-out: % increase in volume of the paw, mean (m).
Where [5] appears, read: + 3 hrs, read-out: Action (variation of paw volume increase vs controls).
The mark [6] stands for this setting: + 4 hrs, read-out: % increase in volume of the paw, mean (m).
Where [7] appears, read: + 4 hrs, read-out: Action (variation of paw volume increase vs controls).
Where [8] appears, read: + 6 hrs, read-out: % increase in volume of the paw, mean (m).
[9] abbreviates: + 6 hrs, read-out: Action (variation of paw volume increase vs controls).
Setting [10] is: sodium salt, water, read-out: Solubility in form of sodium salt.

As to `C=C(CC(=O)c1ccc(-c2ccccc2Cl)cc1)C(=O)OC` [F 1440, 2-methylene 4-oxo 4-(4'-o-chlorophenylphenyl) methyl butyrate], in series [1], the LD50 (as a rule, the dose at which mortality reaches 50%) at 48 h is > 1000 mg/kg. The “% var. / action (variation of paw volume increase vs controls)” value in the series with carrageenin edema (3 hrs) was -22%; in the series with carrageenin edema (4 hrs), -15%; in the series on carrageenin edema (6 hrs), -9%. Moreover, the change in vivo at 75 mg/kg is 47% in the series with carrageenin edema (3 hrs, read-out: % increase in volume of the paw, mean (m)); 50.5% with carrageenin edema (4 hrs, read-out: % increase in volume of the paw, mean (m)); 51% in the series on carrageenin edema (6 hrs, read-out: % increase in volume of the paw, mean (m)); -15% with carrageenin edema (setting [3]). The “Solubility in N-methyl pyrrolidone” value in “Solubility properties” is 60%. For the same compound, the “Solubility in NN-dimethyl acetamide” value in the series “Solubility properties” is reported as 60%. The Solubility in water entry in the series “Solubility properties” (water) is “insoluble”.

Regarding `C=C(CC(=O)c1cccc2ccccc12)C(=O)O` [F 1494, 2-methylene 4-oxo 4-naphthalene butanoic acid], in “Solubility properties”, the “Solubility in N-methyl pyrrolidone” value was 50%, the “Solubility in NN-dimethyl acetamide” value is given as 50% and the “Solubility in ethyl alcohol” value is on record as 3%. Moreover, in “Solubility properties” (water), the Solubility in water result is “insoluble”.

Take `CC(=CC(=O)c1ccc(-c2ccccc2Cl)cc1)C(=O)Nc1cccc(C(F)(F)F)c1` [F 1441]: the “Solubility in ethyl alcohol” value in “Solubility properties” amounted to 6%. Besides, in “Solubility properties” (water), the Solubility in water result was “insoluble”.

In the case of `C=C(CC(=O)c1ccc(-c2ccc(Br)cc2)cc1)C(=O)O` [Example 5, 2-methylene 4-oxo 4-(phenyl-4'-parabromophenyl) butyric acid], in the series “Solubility properties”, the “Solubility in N-methyl pyrrolidone” value stood at 25% and the “Solubility in ethyl alcohol” value is recorded as 1%. For the same compound, the Solubility in water result in “Solubility properties” (water) was “insoluble”.

For `CC(=CC(=O)c1ccccc1)C(=O)N1CCOCC1` [F 1443, N-(4-phenyl 4-oxo 2-methyl 2-butenoyl)morpholine], in “Solubility properties”, the “Solubility in N-methyl pyrrolidone” value is given as 5%, the “Solubility in alcohol of 95° GL” value amounted to 1.5% and the “Solubility in NN-dimethyl acetamide” value was found to be 5%. Also, the Solubility in water result in “Solubility properties” (water) is “insoluble”.

For the compound `C=C(CC(=O)c1ccc(-c2ccccc2Cl)cc1)C(=O)O` [F 1496, 2-methylene 4-oxo 4-(4'-orthochlorophenylphenyl) arginine butyrate], the Solubility in water entry in “Solubility properties” (water) was “soluble”.

`C=C(CC(=O)c1ccc(C2CCCCC2)cc1)C(=O)O` [F 1353, 2-methylene 4-oxo 4-(paracyclohexylphenyl) butyric acid]: in the series “Solubility properties”, the “Solubility in NN-dimethyl acetamide” value is 20%, the “Solubility in ethyl alcohol” value was 3% and the “Solubility in propylene glycol” value came out at 1%. In addition, the solubility (in general, the concentration that dissolves in the medium under given conditions) in the series “Solubility properties” (water with sodium bicarbonate, water + sodium bicarbonate, read-out: Solubility in water by addition of sodium bicarbonate) is 10000 µg/mL. Also, in “Solubility properties” (water), the Solubility in water result was “insoluble”.

Consider `C=C(CC(=O)c1ccc(-c2ccc(Br)cc2)cc1)C(=O)O` [F 1378], for which the change in vivo at 300 mg/kg in the series with carrageenin edema (setting [4]) is 45.4%; with carrageenin edema (setting [5]), -26%; in the series with carrageenin edema (setting [6]) it was 47.9%; in the series with carrageenin edema (setting [7]) it was -21%; in the series on carrageenin edema (setting [8]), 52.4%; with carrageenin edema (setting [9]), -8%. In addition, the change in vivo at 300 mg/kg with carrageenin edema (setting [3]) is -18.3%.

As for `C=C(CC(=O)c1ccc(Cl)cc1)C(=O)O` [F 1352, 2-methylene 4-oxo 4-(parachlorophenyl) butyric acid], the “% Decrease (of writhings)” value in series [2] was 40,3%. In addition, in series [2], the “Mean No. of Writhings” value is 26,6. In addition, the change in vivo at 300 mg/kg is 35.8% in the series on carrageenin edema (setting [4]); -28% in the series on carrageenin edema (setting [5]); 37.9% in the series with carrageenin edema (setting [6]); -24% in the series on carrageenin edema (setting [7]); 37.3% in the series with carrageenin edema (setting [8]); -19% in the series on carrageenin edema (setting [9]). Also, the change in vivo at 300 mg/kg in the series on carrageenin edema (setting [3]) is -23.6%. Further, the “Solubility in N-methyl pyrrolidone” value in the series “Solubility properties” was 25%. Besides, in “Solubility properties”, the “Solubility in ethyl alcohol” value was 3%. Besides, in “Solubility properties” (setting [10]), the solubility was found to be 10000 µg/mL. Further, in “Solubility properties” (water), the Solubility in water entry was “insoluble”.

`CC(=CC(=O)c1ccc(-c2ccccc2)cc1)C(=O)O` [F 1448, 2-methyl 4-oxo 4-(4'-phenylphenyl) 2-butenoic acid]: in the series “Solubility properties”, the “Solubility in N-methyl pyrrolidone” value is reported as 20%, the “Solubility in NN-dimethyl acetamide” value is listed as 25% and the “Solubility in ethyl alcohol” value amounted to 1%. Further, the Solubility in water entry in “Solubility properties” (water) is “insoluble”.

Consider `C=C(CC(=O)c1ccc2c(c1)CCCC2)C(=O)O` [F 1495, 2-methylene 4-oxo 4-(1'-2'-3'-4'-tetrahydronaphthalene) butyric acid], for which, in “Solubility properties”, the “Solubility in N-methyl pyrrolidone” value is reported as 50%, the “Solubility in alcohol of 95° GL” value stood at 8% and the “Solubility in NN-dimethyl acetamide” value is 50%. Also, the Solubility in water result in “Solubility properties” (water) is recorded as “insoluble”.

`CC(=CC(=O)c1ccccc1)C(=O)O` [F 1351, 2-methyl 4-oxo 4-phenyl 2-butenoic acid]: the “% Decrease (of writhings)” value in series [2] is 48,2%. Besides, the “Mean No. of Writhings” value in series [2] is listed as 28,0. The change in vivo at 300 mg/kg is 29.7% in the series with carrageenin edema (setting [4]); -41% with carrageenin edema (setting [5]); 33.8% with carrageenin edema (setting [6]); -32% with carrageenin edema (setting [7]); 40.6% with carrageenin edema (setting [8]); -12% in the series with carrageenin edema (setting [9]). The “Solubility in ethyl alcohol” value in the series “Solubility properties” is 5%. The “Solubility in propylene glycol” value in “Solubility properties” was 3%. In the series “Solubility properties” (setting [10]), the solubility came out at 10000 µg/mL.

As to `CC(=O)Oc1ccccc1C(=O)O` [acetylsalicyclic acid, reference compound], in series [2], the “% Decrease (of writhings)” value is 36,6% and the “Mean No. of Writhings” value is reported as 24,7.

For the compound `C=C(CC(=O)c1ccccc1)C(=O)O` [F 1350, 2-methylene 4-oxo 4-phenyl butyric acid], the “% Decrease (of writhings)” value in series [2] is listed as 42,3%. In series [2], the “Mean No. of Writhings” value was 25,7. The change in vivo at 300 mg/kg in the series with carrageenin edema (setting [4]) was 34.3%; in the series on carrageenin edema (setting [6]) it was 39.7%; in the series on carrageenin edema (setting [8]), 46.1%; in the series with carrageenin edema (setting [9]) it was 0%; in the series on carrageenin edema (setting [3]), -17%. In addition, the Solubility in acetone in the series “Solubility properties” was found to be 6%. For the same compound, the “Solubility in NN-dimethyl acetamide” value in the series “Solubility properties” came to 10%. In the series “Solubility properties” (dimethyl sulfoxide), the “Solubility in dimethyl sulfoxide” value is reported as 25%. Moreover, the “Solubility in ethyl alcohol” value in the series “Solubility properties” is listed as 3%. In “Solubility properties” (setting [10]), the solubility turned out to be 10000 µg/mL. The Solubility in water result in “Solubility properties” (water) is “insoluble”.

Turning to `C=C(CC(=O)c1ccc(Oc2ccccc2)cc1)C(=O)O` [F 1380], the change in vivo at 200 mg/kg in the series with carrageenin edema (setting [4]) is 50.3%; in the series with carrageenin edema (setting [5]), -18%; in the series with carrageenin edema (setting [6]), 52.8%; with carrageenin edema (setting [7]), -12%; with carrageenin edema (setting [8]), 55.6%; in the series on carrageenin edema (setting [9]), -3%. In the series on carrageenin edema (setting [3]), the change in vivo at 200 mg/kg was -11%.

`C=C(CC(=O)c1ccc(OC)c(-c2ccccc2)c1)C(=O)O` [F 1497, 2-methylene 4-oxo 4-(3' phenyl, 4'-methoxyphenyl) butyric acid]: in the series “Solubility properties”, the “Solubility in alcohol of 95° GL” value was found to be 6% and the “Solubility in NN-dimethyl acetamide” value came out at 30%. The Solubility in water entry in the series “Solubility properties” (water) was “insoluble”.

As for `C=C(CC(=O)c1ccc(Oc2ccccc2)cc1)C(=O)O` [Example 4, 2-methylene 4-oxo 4-(paraphenoxyphenyl) butyric acid], the “Solubility in NN dimethyl formamide” value in “Solubility properties” (NN dimethyl formamide) came to 50%. Besides, in the series “Solubility properties”, the Solubility in acetone came out at 10%, the “Solubility in ethyl alcohol” value is listed as 3% and the “Solubility in propylene glycol” value came out at 1%. The Solubility in chloroform in the series “Solubility properties” (chloroform) was 5%. Moreover, in “Solubility properties” (setting [10]), the solubility came out at 100000 µg/mL. The Solubility in water result in “Solubility properties” (water) was “insoluble”.
